Earlier results in patent US7618650B2, “Combination of a hypnotic agent and substituted bis aryl and heteroaryl compound and therapeutic application thereof” (Aventis Pharmaceuticals Inc, priority 2005, dated 2009).

Conditions: average dosage between 5 and 10 mg in a conventional formulation

Q: Which “half life, average value” does the source give for `Cc1ccc(-c2nc3ccc(C)cn3c2CC(=O)N(C)C)cc1` [Zolpidem, zolpidem] here?
A: Its value is “about 2.4 hours”.
